# US10799494B2, “Combination of respiratory electron transport chain inhibitors with a cytochrome bd inhibitor” (priority 2015, dated 2020)
# pIC50: −log10 of the molar value.
# Target: M. tuberculosis cytochrome bd-I (Mycobacterium tuberculosis, UniProt L7N662)
# Format: biochemical
# Settings: not given
# Chain of M. tuberculosis cytochrome bd-I (L7N662 1-485): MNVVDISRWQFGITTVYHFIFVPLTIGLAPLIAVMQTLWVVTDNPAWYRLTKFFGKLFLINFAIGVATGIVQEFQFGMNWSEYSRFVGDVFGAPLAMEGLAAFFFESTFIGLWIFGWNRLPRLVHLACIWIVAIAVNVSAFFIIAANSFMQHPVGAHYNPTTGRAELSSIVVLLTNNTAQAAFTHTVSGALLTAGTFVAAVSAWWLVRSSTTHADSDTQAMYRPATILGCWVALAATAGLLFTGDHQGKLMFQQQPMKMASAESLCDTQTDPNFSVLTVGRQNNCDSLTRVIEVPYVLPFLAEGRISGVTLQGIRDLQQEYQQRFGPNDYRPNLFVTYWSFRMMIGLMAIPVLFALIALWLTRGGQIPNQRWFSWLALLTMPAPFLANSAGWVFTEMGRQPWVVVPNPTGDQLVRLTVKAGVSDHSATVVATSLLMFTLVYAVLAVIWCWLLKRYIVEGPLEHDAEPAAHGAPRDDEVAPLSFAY
row,Compound,inhibition @ 1 uM (% of cntls)
1,3-Methyl-2-(1-(4-(trifluoromethoxy)phenethyl)-1H-pyrazol-4-yl)quinolin-4(1H)-one [WDH-2R-4],56.2 % of cntls
2,"Cc1c(-c2cccc(Cc3ccc(OC(F)(F)F)cc3)c2)[nH]c2ccccc2c1=O [CK-2-58, 3-Methyl-2-(3-(4-(trifluoromethoxy)benzyl)phenyl)quinolin-4(1H)-one]",82.3 % of cntls
3,"COc1ccc(Cc2ccc(-c3[nH]c4ccccc4c(=O)c3C)cc2)cc1 [CK-2-96, 2-(4-(4-Methoxybenzyl)phenyI)-3-methylquinolin-4(1H)-one]",85.7 % of cntls
4,"Cc1c(-c2ccc(Oc3ccc(OC(F)(F)F)cc3)nc2)[nH]c2ccccc2c1=O [CK-3-22, 3-Methyl-2-(6-(4-(trifluoromethoxy)phenoxy)pyridin-3-yl)quinolin-4(1H)-one]",62.8 % of cntls
5,"O=c1cc(-c2ccc(Cc3ccc(OC(F)(F)F)cc3)cc2)[nH]c2cc(O)c(F)cc12 [CK-3-68, 6-Fluoro-7-hydroxy-2-(4-(4-(trifluoromethoxy)benzyl)phenyl)quinolin-4(1H)-one]",71.7 % of cntls
6,"Cc1c(-c2ccc(Oc3cccc(OCCN4CCOCC4)c3)cc2)[nH]c2ccccc2c1=O [CK-4-15, 3-Methyl-2-(4-(3-(2-morpholinoethoxy)phenoxy)phenyl)quinolin-4(1H)-one]",66.6 % of cntls
7,"Cc1c(-c2ccc(OC3CCC(F)(F)CC3)cc2)[nH]c2ccccc2c1=O [PG105, 2-(4-((4,4-Difluorocyclohexyl)oxy)phenyI)-3-methylquinolin-4(1H)-one]",71.5 % of cntls
8,"Cc1c(-c2ccc(Cc3cccc(OCCN4CCOCC4)c3)cc2)[nH]c2ccccc2c1=O [PG201, 3-Methyl-2-(4-(3-(2-morpholinoethoxy)benzyl)phenyl)quinolin-4(1H)-one]",68.7 % of cntls
9,"O=c1c(-c2ccc(Oc3ccc(OC(F)(F)F)cc3)cc2)c(CO)[nH]c2ccccc12 [PG208, 2-(Hydroxymethyl)-3-(4-(4-(trifluoromethoxy)phenoxy)phenyl)quinolin-4(1H)-one]",66.7 % of cntls
10,"Cc1c(-c2ccc(-c3ccc(C(F)(F)F)cc3)nc2)[nH]c2ccccc2c1=O [RKA 142, 3-Methyl-2-(6-(4-(trifluoromethyl)phenyl)pyridin-3-yl)quinolin-4(1H)-one]",>50 % of cntls
11,"COc1cccc2[nH]c(-c3ccc(-c4ccc(OC(F)(F)F)cc4)nc3)c(C)c(=O)c12 [SCR-04-04, 5-Methoxy-3-methyl-2-(6-(4-(trifluoromethoxy)phenyl)pyridin-3-yl)quinolin-4(1H)-one]",65.4 % of cntls
12,"COc1ccc2[nH]c(-c3ccc(Cc4ccc(OC(F)(F)F)cc4)cc3)c(C)c(=O)c2c1 [SCR-05-03, 6-Methoxy-3-methyl-2-(4-(4-(trifluoromethoxy)benzyl)phenyl)quinolin-4(1H)-one]",60.9 % of cntls
13,"Cc1c(-c2ccc(Cc3ccc(OC(F)(F)F)cc3)cc2)[nH]c2c(O)cccc2c1=O [SCR-06-03D, 8-Hydroxy-3-methyl-2-(4-(4-(trifluoromethoxy)benzyl)phenyl)quinolin-4(1H)-one]",73.1 % of cntls
14,"Cc1c(-c2ccc(Cc3ccc(OC(F)(F)F)cc3)cc2)[nH]c2cc(O)ccc2c1=O [SCR-45-01D, 7-Hydroxy-3-methyl-2-(4-(4-(trifluoromethoxy)benzyl)phenyl)quinolin-4(1H)-one]",81.5 % of cntls
15,"Cc1c(-c2ccc(-c3ccccc3C(F)(F)F)cc2)[nH]c2ccccc2c1=O [SL-2-36, 3-Methyl-2-(2′-(trifluoromethyl)-[1,1′-biphenyl]-4-yl)quinolin-4(1H)-one]",90.5 % of cntls
16,"Cc1c(-c2ccc(-c3ccccc3F)cc2)[nH]c2ccccc2c1=O [SL-3-3, 2-(2′-Fluoro-[1,1′-biphenyl]-4-yl)-3-methylquinolin-4(1H)-one]",62.2 % of cntls

# Same assay, conditions: additional compounds; […]
row,Compound,pIC50
1,3-Methyl-2-(1-(4-(trifluoromethoxy)phenethyl)-1H-pyrazol-4-yl)quinolin-4(1H)-one [WDH-2R-4],6.42
